# In publication PMC12175890 (Science Advances, 2025):
# Target: T1, BdPAPT-CD (Babesia duncani, UniProt A0AAD9PLN9)
# T1 sequence (A0AAD9PLN9 301-734): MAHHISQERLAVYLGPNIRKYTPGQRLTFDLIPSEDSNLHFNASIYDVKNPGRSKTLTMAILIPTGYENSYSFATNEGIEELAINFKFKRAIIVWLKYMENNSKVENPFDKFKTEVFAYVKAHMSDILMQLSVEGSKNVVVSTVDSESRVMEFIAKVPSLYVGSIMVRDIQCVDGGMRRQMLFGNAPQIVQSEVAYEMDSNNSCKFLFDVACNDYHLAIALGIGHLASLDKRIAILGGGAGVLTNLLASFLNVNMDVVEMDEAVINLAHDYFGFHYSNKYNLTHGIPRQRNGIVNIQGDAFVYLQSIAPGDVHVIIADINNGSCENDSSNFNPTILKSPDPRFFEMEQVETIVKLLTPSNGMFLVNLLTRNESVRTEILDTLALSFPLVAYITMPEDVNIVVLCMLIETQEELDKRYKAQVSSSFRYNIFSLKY
# Assay: TLC of spermidine formation
# Type: biochemical
# Conditions: 0.1 mM dcSAM, 0.1 mM putrescine, 37 °C, potassium phosphate pH 7.5
smiles,measurement,value
NCCCCN [PUT],TLC of spermidine formation,efficient conversion of PUT to SPD by BdPAPT-Cterm and its CD
